This is an account of results in US11478474B2, “2-(3′-(hydroxymethyl)-1-methyl-5-((5-(2-methyl-4-(oxetan-3-yl)piperazin-1-yl)pyridin-2-yl)amino)-6-oxo-1,6-dihydro-[3,4′-bipyridin]-2′-yl)-7,7-dimethyl-7,8-dihydro-2H-cyclopenta[4,5]pyrrolo[1,2-a]pyrazin-1(6H)-one as a BTK inhibitor” (HUTCHISON MEDIPHARMA LIMITED, priority 2020, dated 2022).

Test [1] concerns the target phosphorylated BTK in Ramos cells (Homo sapiens (Human), UniProt Q06187). Briefly: Determination of phosphorylated BTK in Ramos cells (BTK phospho-Y223 HTRF). Type of test: cell-based. As to conditions: anti-human IgM + hydrogen peroxide stimulation. Put shortly:
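Ramos cells starved 2 h in 1% FBS, then treated 1 h with compound (0.00018–3.0 μM, 0.3% DMSO). They were then stimulated 10 min at 37° C. with anti-human IgM (10 μg/mL) plus H2O2 (3.3 mM). Lysates read by BTK phospho-Y223 HTRF (665/615 nm ratio); IC50 fitted from inhibition normalized to stimulated and unstimulated controls.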

A further test deals with BTK recombinant protein (Homo sapiens (Human), UniProt Q06187). Description: Determination of biochemical BTK (Z'-LYTE kinase assay). Put shortly: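 Human BTK recombinant kinase (3.32 nM final) was preincubated with compound for 30 min at 4 °C. Reaction ran 1 h at room temperature with Tyr01 FRET peptide (2 μM) and ATP (32 μM); development protease then added. Coumarin 445 nm/fluorescein 520 nm emission ratio (400 nm excitation) gave inhibition across 8 concentrations, 3000–1.37 nM.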
BTK recombinant protein, sequence (Q06187 whole entry): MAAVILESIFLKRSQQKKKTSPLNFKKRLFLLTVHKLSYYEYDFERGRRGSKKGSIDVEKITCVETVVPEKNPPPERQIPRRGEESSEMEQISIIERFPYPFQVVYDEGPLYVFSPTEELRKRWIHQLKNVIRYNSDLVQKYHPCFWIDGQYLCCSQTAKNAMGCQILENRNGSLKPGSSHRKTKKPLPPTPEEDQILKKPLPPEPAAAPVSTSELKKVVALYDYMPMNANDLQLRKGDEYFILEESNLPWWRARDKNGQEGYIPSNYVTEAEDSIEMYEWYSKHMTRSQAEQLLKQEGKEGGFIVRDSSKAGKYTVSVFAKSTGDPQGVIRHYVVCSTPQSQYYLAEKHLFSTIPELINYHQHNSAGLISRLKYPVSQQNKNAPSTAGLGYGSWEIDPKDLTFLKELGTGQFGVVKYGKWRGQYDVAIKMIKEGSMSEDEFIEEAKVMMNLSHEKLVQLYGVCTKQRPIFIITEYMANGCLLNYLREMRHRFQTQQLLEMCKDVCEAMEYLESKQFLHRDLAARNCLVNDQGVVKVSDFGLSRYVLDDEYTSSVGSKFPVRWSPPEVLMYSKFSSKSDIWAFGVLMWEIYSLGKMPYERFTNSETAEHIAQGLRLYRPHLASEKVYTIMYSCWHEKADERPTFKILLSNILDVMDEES

Molecules are shown by their SMILES.

phosphorylated BTK in Ramos cells, sequence (Q06187 whole entry): as above

Turning to `[2H]C(O)c1c(-c2cc(Nc3ccc(N4CCN(C5COC5)C[C@@H]4C)cn3)c(=O)n(C)c2)ccnc1-n1ccn2c3c(cc2c1=O)CC(C)(C)C3` (some centres unmarked) [Compound 100], the values for the IC50 (in test [1]; at BTK recombinant protein) were 2 nM and 5 nM, respectively.

As for `C[C@H]1CN(CC#N)CCN1c1ccc(Nc2cc(-c3ccnc(-n4ccn5c6c(cc5c4=O)CC(C)(C)C6)c3CO)cn(C)c2=O)nc1` [Compound 102], the IC50 in test [1] amounted to 2 nM; on BTK recombinant protein it was 11 nM.

For the molecule `Cc1nn(-c2nccc(-c3cc(Nc4ccc(N5CCN(C6COC6)C[C@@H]5C)cn4)c(=O)n(C)c3)c2CO)c(=O)c2cc3c(n12)CC(C)(C)C3` [Compound 104], the values for the IC50 (in test [1]; at BTK recombinant protein) were 6 nM and 10 nM, respectively.

Take `C[C@H]1CN(C2COC2)CCN1c1ccc(Nc2cc(-c3ccnc(-n4ccn5c6c(cc5c4=O)CC(C)(C)C6)c3CF)cn(C)c2=O)nc1` [Compound 105]: the IC50 in test [1] was determined as 11 nM; at BTK recombinant protein, 67 nM.

In the case of `CN(c1ccc(Nc2cc(-c3ccnc(-n4ncn5c6c(cc5c4=O)CC(C)(C)C6)c3CO)cn(C)c2=O)nc1)C1COC1` [Compound 106], the IC50 worked out at 1 nM in test [1] and 12 nM on BTK recombinant protein.

Consider `COCCN1CCn2nc(Nc3cc(-c4ccnc(-n5ncn6c7c(cc6c5=O)CC(C)(C)C7)c4CO)cn(C)c3=O)cc2C1` [Compound 107], for which the values for the IC50 (in test [1]; on BTK recombinant protein) were 2 nM and 12 nM, respectively.

`C[C@H]1CN(C#N)CCN1c1ccc(Nc2cc(-c3ccnc(-n4ccn5c6c(cc5c4=O)CC(C)(C)C6)c3CO)cn(C)c2=O)nc1` [Compound 108]: the IC50 was determined as 1 nM in test [1] and 7 nM at BTK recombinant protein.

For `Cn1cc(-c2ccnc(-n3ccn4c5c(cc4c3=O)CC(C)(C)C5)c2CO)cc(Nc2ccc(N3CCC4C3CCN4C3COC3)cn2)c1=O` (centres unmarked) [Compound 109], the IC50 in test [1] stood at 4 nM; on BTK recombinant protein, 20 nM.

In the case of `COCCN1CCn2nc(Nc3cc(-c4ccnc(-n5ccn6c7c(cc6c5=O)CC(C)(C)C7)c4CO)cn(C)c3=O)cc2C1C` (centres unmarked) [Compound 111], the results for the IC50 (in test [1]; on BTK recombinant protein) were 2 nM and 8 nM, respectively.

In the case of `CC1c2cc(Nc3cc(-c4ccnc(-n5ccn6c7c(cc6c5=O)CC(C)(C)C7)c4CO)cn(C)c3=O)nn2CCN1C1COC1` (centres unmarked) [Compound 112], the IC50 in test [1] worked out at 3 nM; at BTK recombinant protein, 5 nM.

As for `COCC(C)N1CCn2nc(Nc3cc(-c4ccnc(-n5ccn6c7c(cc6c5=O)CC(C)(C)C7)c4CO)cn(C)c3=O)cc2C1` (centres unmarked) [Compound 115], the figures for the IC50 (in test [1]; at BTK recombinant protein) were 10 nM and 12 nM, respectively.

For `COCCN1CCn2nc(Nc3cc(-c4ccnc(-n5ccn6c7c(cc6c5=O)CC(C)(C)C7)c4CO)cn(C)c3=O)cc2[C@@H]1C` [Compound 116], the results for the IC50 (in test [1]; on BTK recombinant protein) were 11 nM and 10 nM, respectively.

As to `COCCN1CCn2nc(Nc3cc(-c4ccnc(-n5ccn6c7c(cc6c5=O)CC(C)(C)C7)c4CO)cn(C)c3=O)cc2[C@H]1C` [Compound 117], the figures for the IC50 (in test [1]; on BTK recombinant protein) were 7 nM and 4 nM, respectively.

For `CC1c2cc(Nc3cc(-c4ccnc(-n5ncn6c7c(cc6c5=O)CC(C)(C)C7)c4CO)cn(C)c3=O)nn2CCN1C1COC1` (centres unmarked) [Compound 118], the IC50 in test [1] came out at 1 nM; at BTK recombinant protein it was 5 nM.

As to `COCCN1CCn2nc(Nc3cc(-c4ccnc(-n5ncn6c7c(cc6c5=O)CC(C)(C)C7)c4CO)cn(C)c3=O)cc2[C@@H]1C` [Compound 119, 2-(3′-(hydroxymethyl)-5-((5-(2-methoxyethyl)-4-methyl-4,5,6,7-tetrahydropyrazolo[1,5-a]pyrazin-2-yl) amido)-1-methyl-6-oxo-1,6-dihydro-[3,4′-bispyridin]-2′-yl)-7,7-dimethyl-7,8-dihydro-2H-cyclopenta[4,5]pyrrolo[1,2-d][1,2,4]triazin-1(6H)-one optically Pure], the IC50 is 2 nM in test [1] and 7 nM at BTK recombinant protein.

For the molecule `Cn1cc(-c2ccnc(-n3ncn4c5c(cc4c3=O)CC(C)(C)C5)c2CO)cc(Nc2cc3n(n2)CCN(C2COC2)C3)c1=O` [Compound 122], the IC50 in test [1] is 7 nM; at BTK recombinant protein it was under 1 nM.

Consider `C[C@H]1CN(C2COC2)C(=O)N1c1ccc(Nc2cc(-c3ccnc(-n4ccn5c6c(cc5c4=O)CC(C)(C)C6)c3CO)cn(C)c2=O)nc1` [Compound 123], for which the IC50 in test [1] turned out to be 9 nM; at BTK recombinant protein, 13 nM.

As for `Cn1cc(-c2ccnc(-n3ccn4c5c(cc4c3=O)CC(C)(C)C5)c2CO)cc(Nc2cc3n(n2)CCN(C2COC2)C3)c1=O` [Compound 124], the IC50 worked out at 7 nM in test [1] and 6 nM at BTK recombinant protein.

On to `Cc1ccc(Nc2cc(-c3ccnc(-n4ccn5c6c(cc5c4=O)CC(C)(C)C6)c3CO)cn(C)c2=O)nc1` [Compound 125], for which the half-inhibitory concentration (IC50) in test [1] was 21 nM; on BTK recombinant protein, 33 nM.

Turning to `COc1ccc(Nc2cc(-c3ccnc(-n4ccn5c6c(cc5c4=O)CC(C)(C)C6)c3CO)cn(C)c2=O)nc1` [Compound 126], the IC50 in test [1] was 20 nM; on BTK recombinant protein, 26 nM.

With `C[C@@H](CNC1COC1)Nc1ccc(Nc2cc(-c3ccnc(-n4ccn5c6c(cc5c4=O)CC(C)(C)C6)c3CO)cn(C)c2=O)nc1` [Compound 127], the figures for the IC50 (in test [1]; on BTK recombinant protein) were 18 nM and 10 nM, respectively.

On to `Cc1ccc(Nc2cc(-c3ccnc(-n4ncn5c6c(cc5c4=O)CC(C)(C)C6)c3CO)cn(C)c2=O)nn1` [Compound 132], for which the IC50 is 28 nM in test [1] and 51 nM at BTK recombinant protein.

For `COc1ccc(Nc2cc(-c3ccnc(-n4ncn5c6c(cc5c4=O)CC(C)(C)C6)c3CO)cn(C)c2=O)nc1` [Compound 133], the values for the half-maximal inhibitory concentration (IC50) (in test [1]; at BTK recombinant protein) were 13 nM and 33 nM, respectively.

Regarding `Cn1cc(-c2ccnc(-n3ccn4c5c(cc4c3=O)CCC5)c2CO)cc(Nc2cc3n(n2)CCN(C2COC2)C3)c1=O` [Compound 134], the IC50 in test [1] is 54 nM; at BTK recombinant protein it was 59 nM.

For `Cn1cc(-c2ccnc(-n3ccn4c5c(cc4c3=O)CC(C)(C)C5)c2CO)cc(Nc2cc3n(n2)CCN(C#N)C3)c1=O` [Compound 135, 2-((2′-(7,7-dimethyl-1-oxo-1,6,7,8-tetrahydro-2H-cyclopenta[4,5]pyrrolo[1,2-a]pyrazin-2-yl)-3′-(hydroxymethyl)-1-methyl-6-oxo-1,6-dihydro-[3,4′-bispyridin]-5-yl)amino)-6,7-dihydropyrazolo[1,5-a]pyrazin-5(4H)-nitrile], the IC50 was 5 nM in test [1] and 8 nM at BTK recombinant protein.

On to `C[C@H]1c2cc(Nc3cc(-c4ccnc(-n5ccn6c7c(cc6c5=O)CC(C)(C)C7)c4CO)cn(C)c3=O)nn2CCN1C1COC1` [Compound 136], for which the IC50 in test [1] was 5 nM; on BTK recombinant protein it was 4 nM.

`C[C@@H]1c2cc(Nc3cc(-c4ccnc(-n5ccn6c7c(cc6c5=O)CC(C)(C)C7)c4CO)cn(C)c3=O)nn2CCN1C1COC1` [Compound 137]: the results for the IC50 (in test [1]; at BTK recombinant protein) were 4 nM and 6 nM, respectively.

As for `COC1CN(c2ccc(Nc3cc(-c4ccnc(-n5ncn6c7c(cc6c5=O)CC(C)(C)C7)c4CO)cn(C)c3=O)nc2)C1` [Compound 139], the IC50 in test [1] turned out to be 11 nM; on BTK recombinant protein, 39 nM.

With `Cn1cc(-c2ccnc(-n3ccn4c5c(cc4c3=O)CC(C)(C)C5)c2CO)cc(Nc2ccc(C3CN(C4COC4)C3)cn2)c1=O` [Compound 140], the IC50 in test [1] was 11 nM; at BTK recombinant protein it was under 1 nM.

As for `Cn1cc(-c2ccnc(-n3ncn4c5c(cc4c3=O)CC(C)(C)C5)c2CO)cc(Nc2ccc(C3CN(C4COC4)C3)cn2)c1=O` [Compound 141], the IC50 in test [1] worked out at 13 nM; at BTK recombinant protein it was 14 nM.

Consider `Cn1cc(-c2ccnc(-n3ccn4c5c(cc4c3=O)CCC5)c2CO)cc(Nc2cc3n(n2)CCN(C#N)C3)c1=O` [Compound 142], for which the IC50 in test [1] came out at 60 nM; at BTK recombinant protein it was 51 nM.

In the case of `Cn1cc(-c2ccnc(-n3ncn4c5c(cc4c3=O)CC(C)(C)C5)c2CO)cc(Nc2cc3n(n2)CCN(C#N)C3)c1=O` [Compound 143], the IC50 in test [1] was 5 nM; at BTK recombinant protein, 4 nM.

With `C[C@H]1CN(C2COC2)CCN1c1ccc(Nc2cc(-c3ccnc(-n4ncn5c(c(F)c6ccccc65)c4=O)c3CO)cn(C)c2=O)nc1` [Compound 149], the IC50 was 8 nM in test [1] and 19 nM on BTK recombinant protein.

Turning to `C[C@H]1CN(C2COC2)CCN1c1ccc(Nc2cc(-c3ccnc(-n4ncn5c6c(cc5c4=O)CCCCC6)c3CO)cn(C)c2=O)nc1` [Compound 150], the IC50 (in test [1]; at BTK recombinant protein) was 12 nM each time.

For the molecule `C[C@H]1CN(C2COC2)CCN1c1ccc(Nc2cc(-c3ccnc(-n4ncn5c(cc6ccccc65)c4=O)c3CO)cn(C)c2=O)nc1` [Compound 151], the IC50 came to 28 nM in test [1] and 2 nM at BTK recombinant protein.

Regarding `COCc1cc(Nc2cc(-c3ccnc(-n4ccn5c6c(cc5c4=O)CC(C)(C)C6)c3CO)cn(C)c2=O)nn1C` [Compound 154], the IC50 in test [1] was 13 nM; at BTK recombinant protein, 8 nM.

`Cn1cc(-c2ccnc(-n3ncn4c5c(cc4c3=O)CC(C)(C)C5)c2CO)cc(Nc2cc3n(n2)CCOC3)c1=O` [Compound 156]: the IC50 in test [1] was 12 nM; at BTK recombinant protein, 6 nM.

On to `C[C@H]1CN(C2COC2)CCN1c1ccc(Nc2cc(-c3ccnc(-n4ncn5c6c(cc5c4=O)CCCC6)c3CO)cn(C)c2=O)nc1` [Compound 157], for which the concentration for half-maximal inhibition (IC50) in test [1] is 25 nM; at BTK recombinant protein it was 16 nM.

For `COC1CN(c2ccc(Nc3cc(-c4ccnc(-n5ccn6c7c(cc6c5=O)CC(C)(C)C7)c4CO)cn(C)c3=O)nn2)C1` [Compound 159], the IC50 in test [1] amounted to 26 nM; at BTK recombinant protein it was 6 nM.

For `C[C@H]1CN(C2COC2)CCN1c1ccc(Nc2cc(-c3ccnc(-n4ccn5c6c(c(F)c5c4=O)CCCC6)c3CO)cn(C)c2=O)nc1` [Compound 161], the IC50 is 7 nM in test [1] and 4 nM on BTK recombinant protein.

As a reminder, the IC50 is the concentration that gives 50% inhibition.
